Experimental data taken from the NIST ThermoML archive (doi:10.1021/je060411g).

Assay: molar heat capacity at constant pressure
Conditions: 101.33 kPa

CCC(C)(C)O [2-methylbutan-2-ol]
Conditions	molar heat capacity at constant pressure [J/K/mol]
84.18 K, Crystal 3	59.96
84.41 K, Crystal 3	60.87
85.57 K, Crystal 3	65.73
86.62 K, Crystal 3	61.65
86.85 K, Crystal 3	61.55
87.94 K, Crystal 3	66.53
89.04 K, Crystal 3	62.98
89.26 K, Crystal 3	62.98
90.33 K, Crystal 3	68.13
91.86 K, Crystal 3	64.6
92.09 K, Crystal 3	64.56
93.17 K, Crystal 3	69.93
94.67 K, Crystal 3	66.27
94.91 K, Crystal 3	66.32
95.99 K, Crystal 3	71.8
97.49 K, Crystal 3	67.95
97.72 K, Crystal 3	68.07
98.82 K, Crystal 3	73.51
100.31 K, Crystal 3	70.24
100.54 K, Crystal 3	70.6
101.65 K, Crystal 3	75.44
103.12 K, Crystal 3	72.36
103.36 K, Crystal 3	72.54
104.48 K, Crystal 3	76.92
105.95 K, Crystal 3	73.89
106.18 K, Crystal 3	74.04
107.28 K, Crystal 3	78.03
108.74 K, Crystal 3	75.59
108.97 K, Crystal 3	75.81
110.03 K, Crystal 3	79.77
111.48 K, Crystal 3	77.47
111.7 K, Crystal 3	77.66
112.73 K, Crystal 3	81.52
114.17 K, Crystal 3	79.5
114.38 K, Crystal 3	79.61
115.38 K, Crystal 3	83.05
116.8 K, Crystal 3	81.46
117.02 K, Crystal 3	81.54
117.99 K, Crystal 3	84.42
119.4 K, Crystal 3	83.36
119.61 K, Crystal 3	83.37
120.55 K, Crystal 3	85.98
121.95 K, Crystal 3	85.58
122.15 K, Crystal 3	85.21
123.09 K, Crystal 3	87.29
124.47 K, Crystal 3	87.36
124.66 K, Crystal 3	87.39
125.59 K, Crystal 3	88.61
126.95 K, Crystal 3	89.35
127.13 K, Crystal 3	89.35
128.06 K, Crystal 3	90.2
129.39 K, Crystal 3	91.6
129.57 K, Crystal 3	91.64
130.5 K, Crystal 3	91.83
131.8 K, Crystal 3	96.05
131.98 K, Crystal 3	95.7
132.91 K, Crystal 3	94.22
134.19 K, Crystal 3	97.24
134.35 K, Crystal 3	97.17
135.29 K, Crystal 3	94.95
136.54 K, Crystal 3	98.99
136.7 K, Crystal 3	98.94
137.65 K, Crystal 3	96.49
138.86 K, Crystal 3	102.38
139.01 K, Crystal 3	102.19
139.98 K, Crystal 3	98.2
141.14 K, Crystal 3	106.32
141.29 K, Crystal 3	106.03
142.29 K, Crystal 3	99.86
143.38 K, Crystal 3	112.82
143.53 K, Crystal 3	110.46
144.58 K, Crystal 3	101.73
148.39 K, Crystal 2	89.39
148.47 K, Crystal 2	107.13
149.08 K, Crystal 2	105.46
150.5 K, Crystal 2	120.91
150.6 K, Crystal 2	120.49
151.3 K, Crystal 2	107.39
152.65 K, Crystal 2	120.48
152.74 K, Crystal 2	120.32
153.5 K, Crystal 2	109.42
154.78 K, Crystal 2	120.35
154.87 K, Crystal 2	120.25
155.66 K, Crystal 2	111.51
156.9 K, Crystal 2	120.17
156.98 K, Crystal 2	120.02
157.81 K, Crystal 2	113.29
159.02 K, Crystal 2	121.07
159.09 K, Crystal 2	120.89
159.95 K, Crystal 2	115.97
161.12 K, Crystal 2	121.73
161.19 K, Crystal 2	121.42
162.06 K, Crystal 2	118.39
163.23 K, Crystal 2	122.32
163.28 K, Crystal 2	121.93
164.16 K, Crystal 2	120.83
165.34 K, Crystal 2	123.02
165.36 K, Crystal 2	122.85
166.24 K, Crystal 2	123.44
167.44 K, Crystal 2	123.55
167.45 K, Crystal 2	123.69
168.29 K, Crystal 2	126.14
169.53 K, Crystal 2	124.34
169.57 K, Crystal 2	124.68
170.33 K, Crystal 2	128.89
171.63 K, Crystal 2	125.44
171.7 K, Crystal 2	125.8
172.35 K, Crystal 2	131.56
173.74 K, Crystal 2	126.82
173.85 K, Crystal 2	127.21
174.35 K, Crystal 2	134.03
175.89 K, Crystal 2	128.48
176.02 K, Crystal 2	128.7
176.33 K, Crystal 2	136.74
178.07 K, Crystal 2	130.33
178.22 K, Crystal 2	130.54
178.3 K, Crystal 2	139.33
180.24 K, Crystal 2	141.75
180.29 K, Crystal 2	131.97
180.44 K, Crystal 2	132.57
182.18 K, Crystal 2	143.44
182.53 K, Crystal 2	133.47
182.64 K, Crystal 2	134.58
184.1 K, Crystal 2	145.88
184.82 K, Crystal 2	137.28
186.01 K, Crystal 2	147.63
186.94 K, Crystal 2	141.12
187.9 K, Crystal 2	148.63
189 K, Crystal 2	143.98
189.78 K, Crystal 2	150.78
191 K, Crystal 2	146.05
191.66 K, Crystal 2	151.3
192.96 K, Crystal 2	149.37
193.52 K, Crystal 2	152.71
194.88 K, Crystal 2	150.75
195.38 K, Crystal 2	154.88
196.78 K, Crystal 2	151.94
197.23 K, Crystal 2	154.68
198.65 K, Crystal 2	154.12
199.07 K, Crystal 2	156.86
199.87 K, Crystal 2	155.64
200.5 K, Crystal 2	154.04
200.9 K, Crystal 2	157.7
201.17 K, Crystal 2	157.49
202.35 K, Crystal 2	156.44
202.62 K, Crystal 2	157.61
204.18 K, Crystal 2	158.51
204.44 K, Crystal 2	159.27
206 K, Crystal 2	158.34
206.25 K, Crystal 2	159.14
207.81 K, Crystal 2	159.84
208.06 K, Crystal 2	160.6
209.61 K, Crystal 2	159.89
209.85 K, Crystal 2	161.82
211.4 K, Crystal 2	158.72
211.64 K, Crystal 2	164.89
217.83 K, Crystal 1	141.33
218.04 K, Crystal 1	144.15
219.66 K, Crystal 1	143.15
219.86 K, Crystal 1	142.88
221.49 K, Crystal 1	143.51
221.68 K, Crystal 1	143.74
223.31 K, Crystal 1	144.13
223.5 K, Crystal 1	144.13
225.12 K, Crystal 1	144.75
225.31 K, Crystal 1	144.76
226.93 K, Crystal 1	145.48
227.12 K, Crystal 1	145.55
228.73 K, Crystal 1	146.48
228.92 K, Crystal 1	146.48
230.52 K, Crystal 1	147.54
230.71 K, Crystal 1	147.5
232.31 K, Crystal 1	148.37
232.49 K, Crystal 1	148.43
234.08 K, Crystal 1	149.45
234.27 K, Crystal 1	149.58
235.86 K, Crystal 1	150.05
236.04 K, Crystal 1	150.15
237.63 K, Crystal 1	151.12
237.81 K, Crystal 1	151.14
239.39 K, Crystal 1	152.5
239.57 K, Crystal 1	152.39
240.92 K, Crystal 1	153.28
241.15 K, Crystal 1	153.19
242.15 K, Crystal 1	153.94
242.9 K, Crystal 1	154.53
243.54 K, Crystal 1	154.92
244.65 K, Crystal 1	155.65
245.28 K, Crystal 1	156.32
246.39 K, Crystal 1	157.17
247.02 K, Crystal 1	157.69
248.12 K, Crystal 1	159.18
249.84 K, Crystal 1	160.99
251.56 K, Crystal 1	163.84
253.26 K, Crystal 1	168.27
